Results on 15 compounds are retold here after ChEMBL document CHEMBL1156182 (Bioorg Med Chem Lett, 2010).

The source made the active and inactive calls. No cut-off for these calls is given here.

In assay [1] the target is T1, Peroxisome proliferator-activated receptor alpha (Homo sapiens) (UniProt Q07869).
T1 sequence (whole entry): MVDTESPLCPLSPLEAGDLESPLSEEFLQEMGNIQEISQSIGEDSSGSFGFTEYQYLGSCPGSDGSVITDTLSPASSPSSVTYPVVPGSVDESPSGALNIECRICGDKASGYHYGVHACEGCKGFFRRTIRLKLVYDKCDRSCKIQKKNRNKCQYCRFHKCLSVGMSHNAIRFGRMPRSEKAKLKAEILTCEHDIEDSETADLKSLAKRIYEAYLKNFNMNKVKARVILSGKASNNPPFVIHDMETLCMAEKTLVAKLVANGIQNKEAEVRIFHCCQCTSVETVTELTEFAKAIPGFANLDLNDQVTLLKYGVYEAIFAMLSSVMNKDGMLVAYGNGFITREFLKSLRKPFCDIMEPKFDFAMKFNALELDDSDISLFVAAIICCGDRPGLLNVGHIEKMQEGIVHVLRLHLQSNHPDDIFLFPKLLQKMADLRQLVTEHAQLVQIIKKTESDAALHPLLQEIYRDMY
The assay can be described thus: Transactivation of human PPARalpha LBD expressed in african green monkey Cos7 cells co-transfected with fused GAL4-DBD at 10 uM after 14 hrs by Dual-Glo Luciferase reporter gene assay. Particulars: COS-7. The assay is classed as cell-based.

Assay [2] addresses T2, Peroxisome proliferator-activated receptor gamma (Homo sapiens, UniProt P37231).
T2 sequence (P37231 whole entry): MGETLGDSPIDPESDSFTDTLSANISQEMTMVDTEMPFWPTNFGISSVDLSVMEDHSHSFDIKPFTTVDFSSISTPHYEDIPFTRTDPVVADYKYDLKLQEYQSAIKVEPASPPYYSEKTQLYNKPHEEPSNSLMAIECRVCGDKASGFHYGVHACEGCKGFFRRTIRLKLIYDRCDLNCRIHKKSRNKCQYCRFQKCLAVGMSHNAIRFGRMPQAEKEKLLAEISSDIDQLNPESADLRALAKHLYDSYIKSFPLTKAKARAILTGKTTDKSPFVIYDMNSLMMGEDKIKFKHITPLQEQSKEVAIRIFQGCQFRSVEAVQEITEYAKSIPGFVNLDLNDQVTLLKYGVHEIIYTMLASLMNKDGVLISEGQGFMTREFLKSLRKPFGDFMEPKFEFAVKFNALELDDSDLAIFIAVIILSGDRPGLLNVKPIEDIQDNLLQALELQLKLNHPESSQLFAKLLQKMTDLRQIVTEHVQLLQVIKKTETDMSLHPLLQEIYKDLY

Assay [3] concerns the target T3, Peroxisome proliferator-activated receptor gamma (Homo sapiens) (UniProt P37231).
T3 sequence (whole entry): T2 sequence (P37231 whole entry)
Nature of the assay: Transactivation of human PPARgamma LBD expressed in african green monkey Cos7 cells co-transfected with fused GAL4-DBD at 10 uM after 14 hrs by Dual-Glo Luciferase reporter gene assay. The assay is classed as cell-based. To be noted: COS-7.

In assay [4] the target is T3, Peroxisome proliferator-activated receptor gamma (Homo sapiens). Nature of the assay: Transactivation of human PPARgamma LBD expressed in african green monkey Cos7 cells co-transfected with fused GAL4-DBD after 14 hrs by Dual-Glo Luciferase reporter gene assay. To be noted: COS-7.
The target is the same in assay [5]. Nature of the assay: Agonist activity at human PPARgamma LBD expressed in african green monkey Cos7 cells co-transfected with fused GAL4-DBD after 14 hrs by Dual-Glo Luciferase reporter gene transactivation assay. Type of assay: functional, cell-based. Particulars: COS-7.

For `CCc1ccc(CCOc2ccc(CC3SC(=O)NC3=O)cc2)nc1` (stereo not given), the outcome in assay [1] was inactive.
Take `Cc1cccc(Nc2cc(Cl)nc(SC(C(=O)O)c3ccc(-c4ccccc4)c4ccccc34)n2)c1C` (stereo not given): the outcome in assay [1] was inactive. The compound also gave an EC50 in assay [2] of 4.5 µM.
In the same order, the values of `O=C(O)C(Sc1nc(Cl)cc(NCCc2ccccc2)n1)c1cccc2ccccc12` (stereo not given) are “inactive” and 10.8 µM.
In the same order, the values of `O=C(O)C(Sc1nc(Cl)cc(Nc2ccc3ccccc3c2)n1)c1cccc2ccccc12` (stereo not given) are “inactive” and 6.9 µM.
In the same order, the values of `O=C(O)C(Sc1nc(Cl)cc(Nc2ccc(F)cc2)n1)c1cccc2ccccc12` (stereo not given) are “inactive” and 13 µM.
Take `CC(C)c1ccc(Nc2cc(Cl)nc(SC(C(=O)O)c3cccc4ccccc34)n2)cc1` (stereo not given): in assay [1], the outcome was inactive. Further, the EC50 in assay [2] was 7.6 µM.
As for `CCCCNc1cc(Cl)nc(SC(C(=O)O)c2cccc3ccccc23)n1` (stereo not given), the result in assay [3], in assay [1] and in assay [4] was inactive.
`CCCCCCC(Sc1nc(Cl)cc(Nc2cccc(C)c2C)n1)C(=O)O` (stereo not given): the EC50 in assay [2] is 3.6 µM.
Turning to `O=C(O)C(Sc1nc(Cl)cc(Nc2ccc3c(c2)CCC3)n1)c1cccc2ccccc12` (stereo not given), in assay [1], the outcome was inactive. Besides, a half-maximal effect in assay [2] (EC50) was put at 6.8 µM.
For `O=C(O)C(Sc1nc(Cl)cc(Nc2cccc(Cl)c2)n1)c1cccc2ccccc12` (stereo not given), the result in assay [1] was inactive. In assay [2], this compound came in with an EC50 of 7.3 µM.
On to `Cc1cccc(Nc2cc(Cl)nc(SC(C(=O)O)c3cccc4ccccc34)n2)c1C` (stereo not given), for which the result in assay [1] and in assay [5] was inactive. In addition, the concentration giving a half-maximal response (EC50) in assay [2] was found to be 6.2 µM.
For `Cc1ccc(Nc2cc(Cl)nc(SC(C(=O)O)c3cccc4ccccc34)n2)cc1C` (stereo not given), in assay [1], the outcome was inactive. The compound further showed an EC50 in assay [2] of 7.8 µM.
With `CC(C)CCNc1cc(Cl)nc(SC(C(=O)O)c2cccc3ccccc23)n1` (stereo not given), the result in assay [1] was inactive. Also, the EC50 in assay [2] stood at 8.9 µM.
Turning to `O=C(O)C(Sc1nc(Cl)cc(NCCCc2ccccc2)n1)c1cccc2ccccc12` (stereo not given), the result in assay [1] was inactive. In assay [2], this compound gave an EC50 of 8.9 µM.
In the same order, the values of `O=C(O)C(Sc1nc(Cl)cc(Nc2ccc(Cl)cc2)n1)c1cccc2ccccc12` (stereo not given) are “inactive” and 9 µM.
